# Assay results reported in ChEMBL document CHEMBL4043168, “The design and SAR of a novel series of 2-aminopyridine based LRRK2 inhibitors” (Bioorg Med Chem Lett, 2017).
# How the values were obtained:
# [1] = biological target: PAN2-PAN3 deadenylation complex subunit PAN3 (Homo sapiens) (UniProt Q58A45); assay: Inhibition of PAN3 Protein Kinase Domain (VMDPTKILITGK) in human PBMC at 1 uM
# [2] = biological target: Calcium/calmodulin-dependent protein kinase type II subunit gamma (Homo sapiens) (UniProt Q13555); assay: Inhibition of CaMK2g labeling at conserved Lys2 (DLKPENLLLASK) in human PBMC at 0.1 uM
# [3] = biological target: Cyclin-dependent kinase 5 (Homo sapiens) (UniProt Q00535); assay: Inhibition of CDK5 labeling at conserved Lys1 (NRETHEIVALKR) in human PBMC at 1 uM
# [4] = biological target: 5'-AMP-activated protein kinase catalytic subunit alpha-2 (Homo sapiens) (UniProt P54646); assay: Inhibition of AMPKa2 labeling at conserved Lys1 (VAVKILNR) in human PBMC at 0.1 uM
# [5] = biological target: Mitogen-activated protein kinase 8 (Homo sapiens) (UniProt P45983); assay: Inhibition of JNK1 conserved Lys2 (DLKPSNIVVK) in human PBMC at 0.1 uM
# [6] = biological target: T1, Mitogen-activated protein kinase kinase kinase 5 (Homo sapiens) (UniProt Q99683); assay: Inhibition of MAP3K5 conserved Lys2 (DIKGDNVLINTYSGVLK) in human PBMC at 0.1 uM
# T1 sequence (whole entry): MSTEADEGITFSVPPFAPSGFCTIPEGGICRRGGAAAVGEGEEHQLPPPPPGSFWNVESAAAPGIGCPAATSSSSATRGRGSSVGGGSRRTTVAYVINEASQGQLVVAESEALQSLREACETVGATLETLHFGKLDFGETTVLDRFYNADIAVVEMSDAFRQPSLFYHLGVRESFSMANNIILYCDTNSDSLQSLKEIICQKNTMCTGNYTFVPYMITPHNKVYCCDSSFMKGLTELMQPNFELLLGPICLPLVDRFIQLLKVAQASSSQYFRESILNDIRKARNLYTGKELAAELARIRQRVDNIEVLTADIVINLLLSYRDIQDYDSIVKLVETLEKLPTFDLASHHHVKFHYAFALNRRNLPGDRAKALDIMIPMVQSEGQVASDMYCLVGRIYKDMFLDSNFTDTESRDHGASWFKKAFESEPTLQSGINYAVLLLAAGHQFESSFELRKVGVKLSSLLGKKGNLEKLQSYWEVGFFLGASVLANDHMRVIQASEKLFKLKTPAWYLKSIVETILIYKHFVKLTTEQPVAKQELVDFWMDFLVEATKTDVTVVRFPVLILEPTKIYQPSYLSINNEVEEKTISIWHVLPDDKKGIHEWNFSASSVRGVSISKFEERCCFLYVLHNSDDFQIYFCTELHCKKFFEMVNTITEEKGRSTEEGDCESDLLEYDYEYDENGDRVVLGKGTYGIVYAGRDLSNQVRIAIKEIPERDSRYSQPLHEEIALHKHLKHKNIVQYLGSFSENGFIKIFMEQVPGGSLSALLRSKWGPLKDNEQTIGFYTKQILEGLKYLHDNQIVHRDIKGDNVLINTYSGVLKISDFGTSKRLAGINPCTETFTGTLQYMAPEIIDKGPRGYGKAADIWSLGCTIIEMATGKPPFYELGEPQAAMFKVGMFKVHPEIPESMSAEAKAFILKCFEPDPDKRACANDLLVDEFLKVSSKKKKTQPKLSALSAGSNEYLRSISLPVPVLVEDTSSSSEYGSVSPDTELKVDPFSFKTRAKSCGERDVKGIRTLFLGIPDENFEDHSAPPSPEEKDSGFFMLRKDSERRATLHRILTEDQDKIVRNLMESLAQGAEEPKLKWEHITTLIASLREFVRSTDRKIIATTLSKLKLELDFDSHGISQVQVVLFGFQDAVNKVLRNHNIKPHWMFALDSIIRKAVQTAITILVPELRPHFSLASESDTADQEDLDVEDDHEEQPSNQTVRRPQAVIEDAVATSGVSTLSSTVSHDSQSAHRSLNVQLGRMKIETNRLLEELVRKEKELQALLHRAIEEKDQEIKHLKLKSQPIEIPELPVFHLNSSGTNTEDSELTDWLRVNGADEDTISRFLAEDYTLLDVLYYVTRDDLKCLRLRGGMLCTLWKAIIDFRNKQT
# [7] = biological target: T2, Serine/threonine-protein kinase ULK3 (Homo sapiens) (UniProt Q6PHR2); assay: Inhibition of ULK3 conserved Lys1 (EVVAIKCVAK) in human PBMC at 0.1 uM
# T2 sequence (whole entry): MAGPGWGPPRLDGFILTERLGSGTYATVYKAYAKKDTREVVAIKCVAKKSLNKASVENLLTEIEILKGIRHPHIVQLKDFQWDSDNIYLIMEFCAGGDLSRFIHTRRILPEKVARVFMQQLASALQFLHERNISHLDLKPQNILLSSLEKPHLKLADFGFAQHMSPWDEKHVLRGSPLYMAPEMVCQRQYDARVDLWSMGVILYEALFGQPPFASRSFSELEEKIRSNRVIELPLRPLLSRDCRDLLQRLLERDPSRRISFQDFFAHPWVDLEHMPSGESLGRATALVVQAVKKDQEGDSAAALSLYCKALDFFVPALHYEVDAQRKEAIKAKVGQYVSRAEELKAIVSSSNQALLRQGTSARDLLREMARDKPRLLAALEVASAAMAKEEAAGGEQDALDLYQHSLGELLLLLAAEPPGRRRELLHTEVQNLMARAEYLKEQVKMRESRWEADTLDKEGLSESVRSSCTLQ
# [8] = biological target: MAP/microtubule affinity-regulating kinase 3 (Homo sapiens) (UniProt P27448); assay: Inhibition of MARK3 conserved Lys2 (DLKAENLLLDADMNIK) in human PBMC at 1 uM
# [9] = biological target: Protein kinase C beta type (Homo sapiens) (UniProt P05771); assay: Inhibition of PKCb conserved Lys2 (DLKLDNVMLDSEGHIK) in human PBMC at 1 uM
# [10] = biological target: Calcium/calmodulin-dependent protein kinase type II subunit beta (Homo sapiens) (UniProt Q13554); assay: Inhibition of CaMK2b labeling at conserved Lys2 (DLKPENLLLASK) in human PBMC at 1 uM
# Homo sapiens = organism: Homo sapiens; assay: Inhibition of p70S6K conserved Lys2 (DLKPENIMLNHQGHVK) in human PBMC at 0.1 uM
# MAP/microtubule affinity-regulating kinase 3 (Homo sapiens), sequence (P27448 whole entry, looked up): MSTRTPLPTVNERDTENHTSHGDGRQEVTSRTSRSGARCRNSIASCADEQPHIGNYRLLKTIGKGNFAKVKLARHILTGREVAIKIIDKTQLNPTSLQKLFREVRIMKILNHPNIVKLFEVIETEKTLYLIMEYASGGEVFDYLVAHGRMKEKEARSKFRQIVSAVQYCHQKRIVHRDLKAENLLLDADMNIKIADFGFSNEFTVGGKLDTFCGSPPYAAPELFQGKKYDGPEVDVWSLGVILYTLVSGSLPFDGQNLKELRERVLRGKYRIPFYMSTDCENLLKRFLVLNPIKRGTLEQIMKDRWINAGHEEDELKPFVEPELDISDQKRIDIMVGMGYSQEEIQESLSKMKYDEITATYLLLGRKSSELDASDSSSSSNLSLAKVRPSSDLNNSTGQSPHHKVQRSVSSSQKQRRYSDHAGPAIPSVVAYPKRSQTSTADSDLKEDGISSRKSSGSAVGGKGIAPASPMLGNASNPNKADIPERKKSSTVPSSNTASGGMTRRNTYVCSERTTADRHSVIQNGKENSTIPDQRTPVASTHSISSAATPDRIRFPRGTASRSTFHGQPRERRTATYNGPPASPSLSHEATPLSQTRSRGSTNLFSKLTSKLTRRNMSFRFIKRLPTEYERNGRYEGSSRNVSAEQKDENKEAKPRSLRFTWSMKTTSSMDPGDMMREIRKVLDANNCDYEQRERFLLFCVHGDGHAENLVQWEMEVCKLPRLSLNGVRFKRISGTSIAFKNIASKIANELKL
# PAN2-PAN3 deadenylation complex subunit PAN3 (Homo sapiens), sequence (Q58A45 whole entry, the tested form may be a part, one chain of several): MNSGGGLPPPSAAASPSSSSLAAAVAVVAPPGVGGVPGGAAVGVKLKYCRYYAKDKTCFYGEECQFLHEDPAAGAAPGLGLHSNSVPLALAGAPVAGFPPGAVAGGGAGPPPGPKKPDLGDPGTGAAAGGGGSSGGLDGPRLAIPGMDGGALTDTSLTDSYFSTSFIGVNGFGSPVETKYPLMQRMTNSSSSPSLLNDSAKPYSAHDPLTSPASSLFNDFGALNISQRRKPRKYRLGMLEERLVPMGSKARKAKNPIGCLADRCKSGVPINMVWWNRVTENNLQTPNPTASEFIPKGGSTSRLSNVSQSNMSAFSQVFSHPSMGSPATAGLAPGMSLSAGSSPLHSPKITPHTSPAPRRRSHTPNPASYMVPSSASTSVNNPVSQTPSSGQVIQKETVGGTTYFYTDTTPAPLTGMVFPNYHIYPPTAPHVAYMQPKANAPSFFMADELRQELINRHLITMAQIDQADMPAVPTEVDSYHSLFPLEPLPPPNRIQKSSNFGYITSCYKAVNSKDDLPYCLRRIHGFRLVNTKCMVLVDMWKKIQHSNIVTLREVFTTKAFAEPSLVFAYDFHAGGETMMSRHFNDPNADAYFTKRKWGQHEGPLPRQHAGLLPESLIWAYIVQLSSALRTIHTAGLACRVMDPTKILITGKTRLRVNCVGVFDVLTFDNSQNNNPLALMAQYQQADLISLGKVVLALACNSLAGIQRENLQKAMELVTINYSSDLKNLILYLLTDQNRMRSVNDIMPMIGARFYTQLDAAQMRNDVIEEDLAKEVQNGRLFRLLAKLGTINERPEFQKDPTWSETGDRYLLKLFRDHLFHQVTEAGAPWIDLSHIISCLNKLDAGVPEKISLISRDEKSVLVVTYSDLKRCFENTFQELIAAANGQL
# Mitogen-activated protein kinase 8 (Homo sapiens), sequence (P45983 whole entry): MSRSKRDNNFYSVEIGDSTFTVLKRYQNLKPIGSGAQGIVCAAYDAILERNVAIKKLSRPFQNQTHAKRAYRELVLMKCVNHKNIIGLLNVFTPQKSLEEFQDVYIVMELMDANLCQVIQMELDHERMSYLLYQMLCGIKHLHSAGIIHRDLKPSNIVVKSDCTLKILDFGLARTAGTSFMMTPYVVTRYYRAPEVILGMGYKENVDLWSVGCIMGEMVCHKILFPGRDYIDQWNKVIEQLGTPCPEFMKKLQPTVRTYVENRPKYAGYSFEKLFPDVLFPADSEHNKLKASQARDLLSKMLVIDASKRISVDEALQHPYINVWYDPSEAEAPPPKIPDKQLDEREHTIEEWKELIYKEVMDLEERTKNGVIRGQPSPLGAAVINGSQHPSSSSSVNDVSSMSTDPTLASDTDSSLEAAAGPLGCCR
# Calcium/calmodulin-dependent protein kinase type II subunit gamma (Homo sapiens), sequence (Q13555 whole entry): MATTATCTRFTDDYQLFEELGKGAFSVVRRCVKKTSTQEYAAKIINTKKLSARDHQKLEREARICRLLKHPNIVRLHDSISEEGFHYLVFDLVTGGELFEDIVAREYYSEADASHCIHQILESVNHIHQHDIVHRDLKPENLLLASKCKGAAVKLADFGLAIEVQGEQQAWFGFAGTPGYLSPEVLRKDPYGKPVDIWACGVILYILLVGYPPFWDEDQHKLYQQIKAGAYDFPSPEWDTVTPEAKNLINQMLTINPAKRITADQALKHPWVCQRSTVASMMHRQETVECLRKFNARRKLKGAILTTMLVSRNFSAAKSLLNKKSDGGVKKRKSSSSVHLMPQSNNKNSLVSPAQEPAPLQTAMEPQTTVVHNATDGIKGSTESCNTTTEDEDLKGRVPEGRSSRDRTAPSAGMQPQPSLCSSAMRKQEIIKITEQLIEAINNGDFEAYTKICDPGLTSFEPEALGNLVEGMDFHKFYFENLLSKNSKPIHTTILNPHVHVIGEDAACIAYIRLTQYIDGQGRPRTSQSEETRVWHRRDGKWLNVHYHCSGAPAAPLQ
# Cyclin-dependent kinase 5 (Homo sapiens), sequence (Q00535 whole entry, looked up): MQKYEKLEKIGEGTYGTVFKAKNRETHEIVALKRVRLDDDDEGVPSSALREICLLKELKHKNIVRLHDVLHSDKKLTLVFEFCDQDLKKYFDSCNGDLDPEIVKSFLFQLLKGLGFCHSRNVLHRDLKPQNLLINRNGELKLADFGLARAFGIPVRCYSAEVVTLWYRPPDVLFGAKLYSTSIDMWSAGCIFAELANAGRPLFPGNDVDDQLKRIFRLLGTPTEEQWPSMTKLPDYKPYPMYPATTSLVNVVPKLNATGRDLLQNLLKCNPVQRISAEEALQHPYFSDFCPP
# 5'-AMP-activated protein kinase catalytic subunit alpha-2 (Homo sapiens), sequence (P54646 whole entry, looked up): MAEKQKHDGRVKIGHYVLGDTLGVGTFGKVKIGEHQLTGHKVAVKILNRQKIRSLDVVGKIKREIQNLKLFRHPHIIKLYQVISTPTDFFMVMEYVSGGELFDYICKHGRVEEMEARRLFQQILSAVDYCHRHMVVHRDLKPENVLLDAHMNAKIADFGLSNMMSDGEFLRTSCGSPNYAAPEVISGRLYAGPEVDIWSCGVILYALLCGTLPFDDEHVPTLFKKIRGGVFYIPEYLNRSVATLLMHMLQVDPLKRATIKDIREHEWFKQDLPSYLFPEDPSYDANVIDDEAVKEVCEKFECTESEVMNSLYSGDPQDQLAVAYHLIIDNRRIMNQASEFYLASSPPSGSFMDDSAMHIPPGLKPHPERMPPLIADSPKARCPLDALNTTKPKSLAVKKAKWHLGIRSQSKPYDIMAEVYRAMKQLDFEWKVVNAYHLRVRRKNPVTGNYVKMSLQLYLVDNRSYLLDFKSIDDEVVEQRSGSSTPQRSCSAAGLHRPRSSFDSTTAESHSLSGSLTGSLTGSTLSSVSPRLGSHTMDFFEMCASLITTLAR
# Protein kinase C beta type (Homo sapiens), sequence (P05771 2-671 limits assumed): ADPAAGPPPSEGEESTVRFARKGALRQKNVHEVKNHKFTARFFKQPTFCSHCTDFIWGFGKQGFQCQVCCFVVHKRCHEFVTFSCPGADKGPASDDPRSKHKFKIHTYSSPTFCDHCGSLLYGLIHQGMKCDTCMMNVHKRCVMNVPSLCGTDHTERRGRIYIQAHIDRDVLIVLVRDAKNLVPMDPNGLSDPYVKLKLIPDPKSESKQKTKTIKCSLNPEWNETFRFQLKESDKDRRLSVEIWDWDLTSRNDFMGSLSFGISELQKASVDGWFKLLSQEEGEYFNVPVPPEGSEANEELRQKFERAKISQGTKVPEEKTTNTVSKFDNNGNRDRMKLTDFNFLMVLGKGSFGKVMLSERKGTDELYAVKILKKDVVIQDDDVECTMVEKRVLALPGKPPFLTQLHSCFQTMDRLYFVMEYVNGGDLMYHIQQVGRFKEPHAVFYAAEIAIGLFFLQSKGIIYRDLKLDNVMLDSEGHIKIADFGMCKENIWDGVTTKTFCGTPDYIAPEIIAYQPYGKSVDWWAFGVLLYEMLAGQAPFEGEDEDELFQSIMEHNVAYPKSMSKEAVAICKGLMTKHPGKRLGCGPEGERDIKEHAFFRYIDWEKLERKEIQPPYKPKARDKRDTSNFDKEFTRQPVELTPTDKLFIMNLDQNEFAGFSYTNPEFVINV
# Calcium/calmodulin-dependent protein kinase type II subunit beta (Homo sapiens), sequence (Q13554 whole entry): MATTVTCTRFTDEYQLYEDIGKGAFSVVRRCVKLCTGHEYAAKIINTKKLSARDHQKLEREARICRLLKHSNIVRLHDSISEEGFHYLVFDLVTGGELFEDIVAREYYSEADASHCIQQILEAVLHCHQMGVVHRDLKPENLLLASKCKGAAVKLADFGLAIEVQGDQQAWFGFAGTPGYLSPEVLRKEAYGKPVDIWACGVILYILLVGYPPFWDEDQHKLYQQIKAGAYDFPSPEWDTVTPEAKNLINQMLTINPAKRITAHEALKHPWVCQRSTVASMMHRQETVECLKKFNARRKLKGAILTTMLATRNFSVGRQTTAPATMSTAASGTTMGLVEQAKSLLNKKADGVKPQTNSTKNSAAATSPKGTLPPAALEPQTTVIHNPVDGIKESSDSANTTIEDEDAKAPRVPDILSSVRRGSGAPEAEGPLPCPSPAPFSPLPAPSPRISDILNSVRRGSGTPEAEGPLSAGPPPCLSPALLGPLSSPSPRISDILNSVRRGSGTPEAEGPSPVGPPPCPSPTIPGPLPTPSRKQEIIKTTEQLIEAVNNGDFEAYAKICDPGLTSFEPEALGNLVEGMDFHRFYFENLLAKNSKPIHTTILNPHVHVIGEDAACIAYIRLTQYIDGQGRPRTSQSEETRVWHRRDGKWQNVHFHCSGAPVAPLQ
compound,measurement,setting,value
CC(C)n1cc(-c2cc(-c3ccc(CN4CCOCC4)cc3)cnc2N)nn1,inhibition,[1],0.1%
same,inhibition,[2],-7.5%
same,inhibition,[3],1.9%
same,inhibition,[4],7.7%
same,inhibition,[5],25.1%
same,inhibition,[6],11%
same,inhibition,[7],20.3%
same,inhibition,[8],28.8%
same,inhibition,[9],-7.4%
same,inhibition,[10],-0.4%
same,inhibition,Homo sapiens,25.3%
